20 compounds from patent EP1953147A1, “HETEROCYCLIC COMPOUND AND MEDICINAL APPLICATION THEREOF” (priority 2005, dated 2007) can be followed below.

The structures appear in SMILES notation.

In this test the test system is ΔG/SEAP/HCV E1E2. The experiment in a line: Effect of test substance on cell infection with HCV pseudotype virus (SEAP reporter assay in HepG2 cells). Type of test: cell-based. The settings on record: Hepatitis C virus. On the technique in general: Reporter assays use an easily measured gene product as a stand-in for the process of interest.
For `CCNC(=O)CN1CCc2c(-c3cc(OC)cc(OC)c3)nn(-c3cc(N4CC[C@H](O)C4)ccc3C(F)(F)F)c(=O)c21` [Example 33, 2-{4-(3,5-dimethoxy-phenyl)-6-[5-((S)-3-hydroxy-pyrrolidin-1-yl)-2-trifluoromethyl-phenyl]-7-oxo-2,3,6,7-tetrahydro-pyrrolo[2,3-d]pyridazin-1-yl}-N-ethyl-acetamide], the half-inhibitory concentration (IC50) was below 100 nM.

As for `COc1cc(OC)cc(-c2nn(-c3cc(CCCO)ccc3C(F)(F)F)c(=O)c3c2CCC3)c1` [Example 121, 4-(3,5-dimethoxy-phenyl)-2-[5-(3-hydroxy-propyl)-2-trifluoromethyl-phenyl]-2,5,6,7-tetrahydro-cyclopenta[d]pyridazin-1-one], the IC50 is below 100 nM.

`COc1cc(OC)cc(-c2nn(-c3cc(N4CC[C@H](O)C4)ccc3C(F)(F)F)c(=O)c3c2CCCN3CCO)c1` [Example 1-39, 5-(3,5-dimethoxy-phenyl)-1-(2-hydroxy-ethyl)-7-[5-((S)-3-hydroxy-pyrrolidin-1-yl)-2-trifluoromethylphenyl]-1,3,4,7-tetrahydro-2H-pyrido[2,3-d]pyridazin-8-one] showed a 50% inhibitory concentration (IC50) below 100 nM. `COc1cc(OC)cc(-c2nn(-c3cc(NCC(N)=O)ccc3C(F)(F)F)c(=O)c3c2CCC3)c1` [Example 123, 2-{3-[4-(3,5-dimethoxy-phenyl)-1-oxo-1,5,6,7-tetrahydro-cyclopenta[d]pyridazin-2-yl]-4-trifluoromethyl-phenylamino}-acetamide] returned an IC50 below 100 nM. For `Cc1cc(C)cc(-c2nn(-c3cc(-c4cccnn4)ccc3C(F)(F)F)c(=O)c3c2CCC3)c1` [Example 8, 4-(3,5-dimethyl-phenyl)-2-(5-pyridazin-3-yl-2-trifluoromethyl-phenyl)-2,5,6,7-tetrahydro-cyclopenta[d]pyridazin-1-one], the half-inhibitory concentration (IC50) is below 100 nM. The same measure for `COc1cc(OC)cc(-c2nn(-c3cc(NCC4CC4)ccc3C(F)(F)F)c(=O)c3c2CCC3)c1` [Example 141, 2-[5-(cyclopropylmethyl-amino)-2-trifluoromethylphenyl]-4-(3,5-dimethoxy-phenyl)-2,5,6,7-tetrahydro-cyclopenta[d]pyridazin-1-one]: below 100 nM.

Regarding `COc1cc(OC)cc(-c2nn(-c3cc(NCCNC(C)=O)ccc3C(F)(F)F)c(=O)c3c2CCC3)c1` [Example 117, N-(2-{3-[4-(3,5-dimethoxy-phenyl)-1-oxo-1,5,6,7-tetrahydro-cyclopenta[d]pyridazin-2-yl]-4-trifluoromethyl-phenylamino}-ethyl)-acetamide], the IC50 is below 100 nM. In the case of `CCCC(=O)Nc1ccc(C(F)(F)F)c(-n2nc(-c3cc(OC)cc(OC)c3)c3c(c2=O)CCC3)c1` [Example 84, N-{3-[4-(3,5-dimethoxy-phenyl)-1-oxo-1,5,6,7-tetrahydro-cyclopenta[d]pyridazin-2-yl]-4-trifluoromethyl-phenyl}-butyramide] it was below 100 nM; in that of `CCCOc1ccc(C(F)(F)F)c(-n2nc(-c3cc(OC)cc(OC)c3)c3c(c2=O)CCC3)c1` [Example 53, 4-(3,5-dimethoxy-phenyl)-2-(5-propoxy-2-trifluoromethyl-phenyl)-2,5,6,7-tetrahydro-cyclopenta[d]pyridazin-1-one], below 100 nM; in that of `COc1cc(OC)cc(-c2nn(-c3cc(NCC(C)O)ccc3C(F)(F)F)c(=O)c3c2CCC3)c1` (centres unmarked) [Example 132, 4-(3,5-dimethoxy-phenyl)-2-[5-(2-hydroxy-propylamino)-2-trifluoromethyl-phenyl]-2,5,6,7-tetrahydro-cyclopenta[d]pyridazin-1-one], below 100 nM. The same measure for `CNC(=O)CCCNc1ccc(C(F)(F)F)c(-n2nc(-c3cc(OC)cc(OC)c3)c3c(c2=O)CCC3)c1` [Example 153, 4-{3-[4-(3,5-dimethoxy-phenyl)-1-oxo-1,5,6,7-tetrahydro-cyclopenta[d]pyridazin-2-yl]-4-trifluoromethyl-phenylamino}-N-methyl-butyramide]: below 100 nM; for `COc1cc(OC)cc(-c2nn(-c3cc(N(C)C)ccc3C(F)(F)F)c(=O)c3c2CCC3)c1` [Example 81, 4-(3,5-dimethoxy-phenyl)-2-(5-dimethylamino-2-trifluoromethyl-phenyl)-2,5,6,7-tetrahydro-cyclopenta[d]pyridazin-1-one]: below 100 nM.

Take `COc1cc(OC)cc(-c2nn(-c3cc(NCCC(=O)OC(C)(C)C)ccc3C(F)(F)F)c(=O)c3c2CCC3)c1` [Example 115, 3-{3-[4-(3,5-dimethoxy-phenyl)-1-oxo-1,5,6,7-tetrahydro-cyclopenta[d]pyridazin-2-yl]-4-trifluoromethyl-phenylamino}-propionic acid tert-butyl ester]: the IC50 is below 100 nM. In the case of `COc1cc(OC)cc(-c2nn(-c3cccc(N4CC[C@H](O)C4)n3)c(=O)c3c2CCC3)c1` [Example 1-7, 4-(3,5-dimethoxy-phenyl)-2-[6-((S)-3-hydroxy-pyrrolidin-1-yl)-pyridin-2-yl]-2,5,6,7-tetrahydro-cyclopenta[d]pyridazin-1-one] it was 100 to 10000 nM; in that of `COc1cc(OC)cc(-c2nn(-c3cc(F)ccc3C(F)(F)F)c(=O)c3c2CCC3)c1` [Example 1-12, 4-(3,5-dimethoxy-phenyl)-2-(5-fluoro-2-trifluoromethylphenyl)-2,5,6,7-tetrahydro-cyclopenta[d]pyridazin-1-one], 100 to 10000 nM; in that of `Cc1cc(-c2cnco2)cc(-c2nn(-c3cc(-c4cccnn4)ccc3C(F)(F)F)c(=O)c3c2CCC3)c1` [Example 3, 4-(3-methyl-5-oxazol-5-yl-phenyl)-2-(5-pyridazin-3-yl-2-trifluoromethyl-phenyl)-2,5,6,7-tetrahydro-cyclopenta[d]pyridazin-1-one], below 100 nM. `CNC(=O)CCNc1ccc(C(F)(F)F)c(-n2nc(-c3cc(OC)cc(OC)c3)c3c(c2=O)CCC3)c1` [Example 138, 3-{3-[4-(3,5-dimethoxy-phenyl)-1-oxo-1,5,6,7-tetrahydro-cyclopenta[d]pyridazin-2-yl]-4-trifluoromethyl-phenylamino}-N-methyl-propionamide]: the concentration for half-maximal inhibition (IC50) is below 100 nM. In the case of `COc1cc(OC)cc(-c2nn(-c3cccc(N4CC[C@H](O)C4)c3)c(=O)c3c2CCN3)c1` [Example 52, 4-(3,5-dimethoxy-phenyl)-6-[3-((S)-3-hydroxy-pyrrolidin-1-yl)-phenyl]-1,2,3,6-tetrahydro-pyrrolo[2,3-d]pyridazin-7-one] it was 100 to 10000 nM; in that of `COc1cc(OC)cc(-c2nn(-c3cc(N4CC[C@H](O)C4)ccc3C(F)(F)F)c(=O)c3c2CCN3CC(N)=O)c1` [Example 28, 2-{4-(3,5-dimethoxy-phenyl)-6-[5-((S)-3-hydroxy-pyrrolidin-1-yl)-2-trifluoromethyl-phenyl]-7-oxo-2,3,6,7-tetrahydro-pyrrolo[2,3-d]pyridazin-1-yl}-acetamide], below 100 nM; in that of `COc1cc(OC)cc(-c2nn(-c3cc(NCc4ccccc4)ccc3C(F)(F)F)c(=O)c3c2CCC3)c1` [Example 135, 2-(5-benzylamino-2-trifluoromethyl-phenyl)-4-(3,5-dimethoxy-phenyl)-2,5,6,7-tetrahydro-cyclopenta[d]pyridazin-1-one], 100 to 10000 nM.

By IC50 is commonly meant the midpoint of a concentration-inhibition curve. Low readings indicate higher potency, high ones lower potency.
